Laboratory results reported in patent US20050175550A1, “Compositions for oral use” (priority 2000, published 2005).
Converted amounts (≈) assume the structure as drawn.

How the values were obtained:
Assay in all cases: MIC by agar plate dilution method on standard strains (Example 3)
Type in all cases: cell-based
Conditions in all cases: read-out: MIC
[1] = tested on: Moraxella (Branhamella) catarrhalis ATCC25240
Procedure: (§1) Drug solutions at a concentration 10 times as high as the maximum applicable concentration were prepared as original solutions of test drugs given in Table 2 (as to solvents used for this purpose, reference should be made also to Table 2). Serial two-fold dilution series of the original solutions were prepared at desired stages, and 1 ml each of the diluted drug solutions was added to 9 ml of media given in Table 3 to prepare drug plates. […] • 1) Bacterial solutions stocked at −80° C. were inoculated on agar media (as to media used, reference should be made to Table 3), and then incubated at 37° C. overnight. When desired, subculturing was conducted once more on the same agar media (by overnight incubation at 37° C.). • 2) Colonies growing on the agar media were sampled by a platinum loop, suspended in liquid media (reference should be made to Table 3) and statically incubated at 37° C. for 18 hours (preculturing). • 3) Preculturing was continued up to McFarland 0.5 (McFarland 0.5=about 10^8 CFU/ml), and then the culture broths were diluted with Muellar Hinton Broth to make 10^6 CFU/ml. 5 μl each of the diluted solutions were inoculated on the above-mentioned drug plates by an inoculator Microplanter. […] Thus, bacterial solutions at about 10^8 CFU/ml can be easily prepared by use of McFarland 0.5. Bacterial solutions at such a turbidity are commercially available, but can be easily prepared.

[2] = tested on: Moraxella (Branhamella) catarrhalis ATCC43617
Procedure: as §1

[3] = tested on: Pseudomonas aeruginosa ATCC27853
Procedure: as §1

[4] = tested on: Serratia marcescens ATCC13880
Procedure: as §1

[5] = tested on: Staphylococcus aureus ATCC29247
Procedure: as §1

[6] = tested on: Staphylococcus aureus ATCC6538P
Procedure: as §1

[7] = tested on: Streptococcus agalactiae ATCC13813
Procedure: as §1

[8] = tested on: Streptococcus pneumoniae ATCC49619
Procedure: as §1

[9] = tested on: Streptococcus pneumoniae ATCC6301
Procedure: as §1

[10] = tested on: Streptococcus pneumoniae ATCC6302
Procedure: as §1

[11] = tested on: Streptococcus pneumoniae ATCC6303
Procedure: as §1

[12] = tested on: Streptococcus pneumoniae ATCC6306
Procedure: as §1

[13] = tested on: Streptococcus pyogenes ATCC12344
Procedure: as §1

[14] = tested on: Streptococcus pyogenes ATCC12353
Procedure: as §1

[15] = tested on: Streptococcus pyogenes ATCC12385
Procedure: as §1

- MIC [1]: 0.2 µg/mL (≈ 0.267 µM)
- MIC [2]: 0.2 µg/mL (≈ 0.267 µM)
- MIC [3]: > 100 µg/mL
- MIC [4]: > 100 µg/mL
- MIC [5]: 50 µg/mL (≈ 66.8 µM)
- MIC [6]: 0.2 µg/mL (≈ 0.267 µM)
- MIC [7]: 0.05 µg/mL (≈ 0.0668 µM)
- MIC [8]: 0.05 µg/mL (≈ 0.0668 µM)
- MIC [9]: 0.05 µg/mL (≈ 0.0668 µM)
- MIC [10]: 0.1 µg/mL (≈ 0.134 µM)
- MIC [11]: 0.05 µg/mL (≈ 0.0668 µM)
- MIC [12]: 0.1 µg/mL (≈ 0.134 µM)
- MIC [13]: 0.05 µg/mL (≈ 0.0668 µM)
- MIC [14]: 0.1 µg/mL (≈ 0.134 µM)
- MIC [15]: 0.1 µg/mL (≈ 0.134 µM)
Compound: CC[C@H]1OC(=O)[C@H](C)[C@@H](O[C@H]2C[C@@](C)(OC)[C@@H](O)[C@H](C)O2)[C@H](C)[C@@H](O[C@@H]2O[C@H](C)C[C@H](N(C)C)[C@H]2O)[C@](C)(OC)C[C@@H](C)C(=O)[C@H](C)[C@@H](O)[C@]1(C)O [CAM, Clarithromycin]
